Measurements reported in patent US20240358693A1, “METHODS OF TREATING PAIN” (Aisa Pharma, Inc., priority 2023, published 2024).

Test system: participants with SSc-RP
Test: Scleroderma Health Assessment Questionnaire (SHAQ): disability indices and visual analog scales
Assay type: in vivo, human
Source text: The standard, validated, patient reported outcome measures tool for SSc patients, the Scleroderma Health Assessment Questionnaire (SHAQ), will be used to assess the participant qualify of life. Details are attached in the Appendix. The participant quality of life will be scored, and a disability index calculated for each questionnaire completed by the patient at Screening and each in-clinic visit. The absolute change in participant quality of life from baseline to the end of each dosing period will be calculated similar to frequency data as before.
The SHAQ includes a Raynaud's VAS, which will be reported at screening and each in-clinic visit. The absolute change in Raynaud-VAS, assessed by the participants response to the SHAQ question ‘In the past 7 days, how much have your Raynaud's interfered with your daily activities?’ at baseline and the end of each dosing period will be calculated similar to frequency data as before.
The SHAQ is used to calculate a Disability Index to assess the participant qualify of life. The eight categories assessed by the Disability Index are 1) dressing and grooming, 2) arising, 3) eating, 4) walking, 5) hygiene, 6) reach, 7) grip, and 8) common daily activities. For each of these categories, patients report the amount of difficulty they have in performing two or three specific activities.
There are four possible responses for the Disability Index questions: • Without any difficulty=0 • With some difficulty=1 • With much difficulty=2 • Unable to do=3. • The highest score reported by the patient for any component question of the eight categories determines the score for that category. • If a component question is left blank or the response is too ambiguous to assign a score, then the score for that category is determined by the remaining completed question(s). • If all component questions are blank or if more than one answer is given, then follow up with the respondent is required. • If the respondent's mark is between the response columns, then move it to the closest one. If it's directly between the two, move it to the higher one.
Each of the disability items on the SHAQ has a companion aids/devices variable that is used to record what type(s) of assistance, if any, the participant uses for his/her usual activities. These variables (see below) are coded as follows: • 0=No assistance is needed. • 1=A special device is used by the patient in his/her usual activities. • 2=The patient usually needs help from another person. • 3=The patient usually needs BOTH a special device AND help from another person.
The scoring variables and scoring rules permit the computation of two disability indices, the Standard Disability Index and the Alternative Disability Index.
This question results in a new set of category scores that are computed by adjusting the score for each category, if necessary, based on the patient's use of an aid or device or assistance for that category. If either devices and/or help from another person are checked for a category, the score is set to “2”, unless the score is already “3” (i.e., scores of “0” or “1” are increased to “2”). For example, if the highest score for the dressing category is “1”, and the patient says they use a device for dressing, the computed category score would be “2”. The sum of the computed categories scores is then calculated and divided by the number of categories answered. This gives a score in the 0 to 3 range.
The aid and device variables are not used to calculate the alternative disability index; it is calculated by adding the scores for each of the categories and dividing by the number of categories answered. This gives a score in the 0 to 3 range.
The standard, validated, patient reported outcome measures tool for SSc patients, the SHAQ, was collected at the time points specified in the study schedules (FIG. 2 and FIGS. 4A and 4B) to assess the participant's quality of life. The SHAQ included a Raynaud's VAS that will also be reported separately.

[1] = Pooled Cilnidipine (N = 7), sensitivity analysis, Modified ITT, Part A
[2] = Pooled Cilnidipine (N = 8), Day 12, PP Population Part A, SSc patients
[3] = Pooled Cilnidipine (N = 8), PP Population Part A, SSc patients
[4] = Pooled Cilnidipine (n = 7), mITT population

SMILES: COCCOC(=O)C1=C(C)NC(C)=C(C(=O)OC/C=C/c2ccccc2)C1c1cccc([N+](=O)[O-])c1 (stereo not shown) [Cilnidipine, cilnidipine]
- SHAQ VAS Breathing Problems: Change from Baseline, Median [1]: 0.000
- SHAQ VAS Breathing Problems: Day 12, Mean [1]: 1.029
- SHAQ VAS Breathing Problems: Day 12, Median [1]: 0.000
- SHAQ VAS Breathing Problems: Percent Change from Baseline, Mean [1]: −8.17%
- SHAQ VAS Breathing Problems: Percent Change from Baseline, Median [1]: −41.33%
- SHAQ VAS Finger Ulcers: Baseline, Mean [1]: 1.171
- SHAQ VAS Finger Ulcers: Baseline, Median [1]: 0.300
- SHAQ VAS Finger Ulcers: Change from Baseline, Mean [1]: −0.643
- SHAQ VAS Finger Ulcers: Change from Baseline, Median [1]: 0.000
- SHAQ VAS Finger Ulcers: Day 12, Mean [1]: 0.529
- SHAQ VAS Finger Ulcers: Day 12, Median [1]: 0.000
- SHAQ VAS Finger Ulcers: Percent Change from Baseline, Mean [1]: −17.08%
- SHAQ VAS Finger Ulcers: Percent Change from Baseline, Median [1]: −50.82%
- SHAQ VAS Intestinal Problems: Baseline, Mean [1]: 2.057
- SHAQ VAS Intestinal Problems: Baseline, Median [1]: 1.000
- SHAQ VAS Intestinal Problems: Change from Baseline, Mean [1]: −0.943
- SHAQ VAS Intestinal Problems: Change from Baseline, Median [1]: 0.000
- SHAQ VAS Intestinal Problems: Day 12, Mean [1]: 1.114
- SHAQ VAS Intestinal Problems: Day 12, Median [1]: 0.600
- SHAQ VAS Intestinal Problems: Percent Change from Baseline, Mean [1]: −32.42%
- SHAQ VAS Intestinal Problems: Percent Change from Baseline, Median [1]: −44.12%
- SHAQ VAS Overall Disease Severity: Baseline, Mean [1]: 2.700
- SHAQ VAS Overall Disease Severity: Baseline, Median [1]: 2.900
- SHAQ VAS Overall Disease Severity: Change from Baseline, Mean [1]: −1.214
- SHAQ VAS Overall Disease Severity: Change from Baseline, Median [1]: −1.500
- SHAQ VAS Overall Disease Severity: Day 12, Mean [1]: 1.486
- SHAQ VAS Overall Disease Severity: Day 12, Median [1]: 1.200
- SHAQ VAS Overall Disease Severity: Percent Change from Baseline, Mean [1]: −59.80%
- SHAQ VAS Overall Disease Severity: Percent Change from Baseline, Median [1]: −55.86%
- SHAQ VAS Pain: Baseline, Mean [1]: 2.057
- SHAQ VAS Pain: Baseline, Median [1]: 1.700
- SHAQ VAS Pain: Change from Baseline, Mean [1]: −0.529
- SHAQ VAS Pain: Change from Baseline, Median [1]: −0.500
- SHAQ VAS Pain: Day 12, Mean [1]: 1.529
- SHAQ VAS Pain: Day 12, Median [1]: 1.000
- SHAQ VAS Pain: Percent Change from Baseline, Mean [1]: −31.22%
- SHAQ VAS Pain: Percent Change from Baseline, Median [1]: −44.98%
- SHAQ VAS Raynaud's: Baseline, Mean [1]: 1.900
- SHAQ VAS Raynaud's: Baseline, Median [1]: 1.100
- SHAQ VAS Raynaud's: Change from Baseline, Mean [1]: −0.357
- SHAQ VAS Raynaud's: Change from Baseline, Median [1]: −0.300
- SHAQ VAS Raynaud's: Day 12, Mean [1]: 1.543
- SHAQ VAS Raynaud's: Day 12, Median [1]: 1.100
- SHAQ VAS Raynaud's: Percent Change from Baseline, Mean [1]: −18.64%
- SHAQ VAS Raynaud's: Percent Change from Baseline, Median [1]: −38.67%
- SHAQ Standard Disability Index, Change from Baseline, Mean [2]: −0.031
- SHAQ Standard Disability Index, Change from Baseline, Median [2]: 0.000
- SHAQ Standard Disability Index, Percent Change from Baseline, Mean [2]: −16.00%
- SHAQ Standard Disability Index, Percent Change from Baseline, Median [2]: 0.00%
- SHAQ Standard Disability Index, In-Clinic Visit (Day 12), Mean [3]: 0.469
- SHAQ Standard Disability Index, In-Clinic Visit (Day 12), Median [3]: 0.188
- SHAQ % change VAS Raynauds [4]: −17%
- SHAQ % change in Alternative Disability Index [4]: −13%
- SHAQ % change in Pain [4]: −31%
- SHAQ % change in Standard Disability Index [4]: −25%
- SHAQ % change overall SSc Disease Severity [4]: −60%
- SHAQ % improvement in Breathing (median) [4]: 41%
- SHAQ % improvement in VAS Digital Ulcers [4]: 19%
- SHAQ % Δ from baseline, VAS Breathing, mean (Pooled cilnidipine (4)): −8.2%
- SHAQ % Δ from baseline, VAS Breathing, median (Pooled cilnidipine (4)): −41.3%
- SHAQ % Δ from baseline, VAS Finger Ulcers, mean (Pooled cilnidipine (4)): −17.1%
